Assay results as given in PubChem BioAssay AID602326 (NMMLSC, 2012).
Active and inactive are the calls of the source. No rule for the calls is given here.

Target: Lethal factor (Bacillus anthracis) (UniProt P15917)
Experiment: Lethal factor protease inhibitors, microsphere cleavage assay, confirmatory dose response, cherry picks (AID 602326)
Conditions: multiplex microsphere protease substrate cleavage assay

Sequence of Lethal factor (Bacillus anthracis) (P15917 whole entry, looked up): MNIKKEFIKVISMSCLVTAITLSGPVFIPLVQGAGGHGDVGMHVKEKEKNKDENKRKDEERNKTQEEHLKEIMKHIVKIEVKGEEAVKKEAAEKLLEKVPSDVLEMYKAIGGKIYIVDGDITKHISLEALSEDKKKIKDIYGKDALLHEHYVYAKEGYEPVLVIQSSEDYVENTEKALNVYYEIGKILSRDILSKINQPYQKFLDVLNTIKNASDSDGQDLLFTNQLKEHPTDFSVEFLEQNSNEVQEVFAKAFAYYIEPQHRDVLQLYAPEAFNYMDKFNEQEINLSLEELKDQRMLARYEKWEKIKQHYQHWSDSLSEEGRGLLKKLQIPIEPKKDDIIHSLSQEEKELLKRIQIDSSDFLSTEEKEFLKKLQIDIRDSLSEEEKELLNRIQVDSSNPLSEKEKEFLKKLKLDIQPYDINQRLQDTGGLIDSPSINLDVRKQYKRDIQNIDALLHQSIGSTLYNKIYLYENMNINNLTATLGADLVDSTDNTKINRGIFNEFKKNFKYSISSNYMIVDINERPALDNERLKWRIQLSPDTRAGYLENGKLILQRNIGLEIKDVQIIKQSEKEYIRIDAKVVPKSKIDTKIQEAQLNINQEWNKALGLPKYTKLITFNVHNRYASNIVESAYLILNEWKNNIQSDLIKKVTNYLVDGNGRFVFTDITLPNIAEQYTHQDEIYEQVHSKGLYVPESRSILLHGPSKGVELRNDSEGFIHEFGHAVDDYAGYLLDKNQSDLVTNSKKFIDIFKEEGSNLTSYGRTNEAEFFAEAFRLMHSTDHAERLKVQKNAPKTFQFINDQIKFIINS

Row | Compound | EC50
1 | O=c1c(/C=C(\O)c2ccccc2)nc2ccccc2n1-c1ccccc1 | > 20 µM (inactive)
2 | Oc1[nH]c(N=C2N=c3ccccc3=N2)c2ccccc12 | > 20 µM (inactive)
